# From paper PMC8202924, “Emodepside targets SLO-1 channels of Onchocerca ochengi and induces broad anthelmintic effects in a bovine model of onchocerciasis” (PLoS Pathogens, 2021)
# Values joined by “and” are separate entries in the source; they are usually repeats but may differ in a detail not shown here. Equal values may be shown once. Read-outs that look alike come from different tables or passages of the source.
# Assay: Plasma PK of emodepside in the main trial, LC-MS/MS
# Format: in vivo, zebu (Ngaoundéré Gudali) cattle (B. t. indicus)
# Details: for Model tmax in plasma: two-compartment model; for Tmax: bovine, iv, read-out: Time of observed Cmax in plasma (converted)
# Method: Bovine samples (EDTA-plasma, skin snips and nodules) were stored at –80°C in Cameroon and shipped according to international transportation guidelines on dry ice to Bayer, Germany. Due to suspected contamination with other pathogens, samples required decontamination. Based on modified WHO guidelines for viral inactivation and reports of virus stability in fluids and solid media issued by the United States Army, decontamination of samples was performed. Samples were thawed slowly in a microbiological safety cabinet and the plasma samples were vortexed gently. Skin snips and nodules were homogenized in a Qiagen TissueLyser II (Qiagen NV, Hilden, the Netherlands) with stainless steel beads. Homogenates were weighed and mixed with 4.5 volumes of a 0.5% collagenase solution (collagenase from Clostridium histolyticum [>125 IU/mg] Merck KGaA, Darmstadt, Germany), then incubated at 37°C with orbital mixing at 140 rpm for 48 h.
# Plasma samples, skin and nodule homogenates were precipitated in a 1:10 ratio with acetonitrile using a vortex mixer at 150 rpm for 10 min, then centrifuged for 5 min at 14,000 rpm. The supernatants were pipetted into gas-tight vials and incubated at 80°C for 21 min to achieve a core temperature of 80°C for 10 min, then cooled to 4°C in a water-ice bath. Finally, samples were filtered using a cellulose sterile filter (S&S Spartan 13/30) into standard HPLC vials for liquid chromatography–mass spectrometry analysis. For liquid chromatography on a C18 column, a water/methanol gradient (containing 10 mmol ammonium acetate and 0.1 mL/L formic acid) was used. Quantification of emodepside was performed by tandem mass spectrometry on an API 5500 instrument (AB Sciex, Darmstadt, Germany) using the transition of m/z = 1,120 ([M + H]^+) to its product ion m/z = 343. […]
# For the PK mean model, the PK of emodepside was modelled using a closed-form, two-compartment IV model according to Eq 1. csdt=dose*c0*exp−ke*t*1+delta*exp+ke*f*t (1) with ke, f and delta being parameters describing the distribution and elimination phase, and c0 being a proportionality factor for the dose.
# The multiple IV dose was modelled as an additive single-dose, two-compartment model according to Eq 2. cmdt=∑i=17t−i*tΔ>0?csdt−i*tΔ:0 (2) with i as index of doses (1 to 7), and tΔ the difference in time between consecutive doses (here 24 h).
# Parameters describing distribution and elimination of emodepside were fitted to the observed data of all dose steps and animals together using the optim fit function of R and the ‘L-BFGS-B’ method […] box constraints. From the observed data, the maximal observed concentration and the corresponding timepoint were extracted. The terminal half-life was calculated from the last three datapoints. The corresponding mean values were derived from the compartmental model parameters.
# [1] = EMO1L, 0.15 mg/kg IV single dose, individual animals in order B0696, B0698, B0700, B0722, B0730, B0731, B0762
structure (smiles),measurement,setting,value
CC(C)C[C@H]1C(=O)O[C@H](Cc2ccc(N3CCOCC3)cc2)C(=O)N(C)[C@@H](CC(C)C)C(=O)O[C@H](C)C(=O)N(C)[C@@H](CC(C)C)C(=O)O[C@H](Cc2ccc(N3CCOCC3)cc2)C(=O)N(C)[C@@H](CC(C)C)C(=O)O[C@H](C)C(=O)N1C [emodepside],Time of observed Cmax in plasma,"EMO1H, 0.75 mg/kg IV single dose, animals in order B0054, B0405, B0439, B0726, B0728",5 min
same,tlast in plasma,"EMO1H, 0.75 mg/kg IV single dose, individual animals in order B0054, B0405, B0439, B0721, B0726, B0727, B0728",168 h (2×) and 504 h (4×) and 336 h
same,Model tmax in plasma,"EMO1H, 0.75 mg/kg IV single dose",0.083 h
same,Time of observed Cmax in plasma,[1],5 min (6×) and 30 min
same,tlast in plasma,[1],168 h (3×) and 336 h (2×) and 504 h
same,Model tmax in plasma,"EMO1L, 0.15 mg/kg IV single dose",0.083 h
same,tlast in plasma,"EMO7H, 0.75 mg/kg IV daily for 7 days, individual animals in order B0404, B0434, B0694, B0695, B0734, B0750, B0765",504 h
same,Model tmax in plasma,"EMO7H, 0.75 mg/kg IV daily for 7 days",144 h
same,tlast in plasma,"EMO7L, 0.15 mg/kg IV daily for 7 days, individual animals in order B0228, B0407, B0549, B0725, B0733, B0735, B0761",336 h and 504 h (6×)
same,Model tmax in plasma,"EMO7L, 0.15 mg/kg IV daily for 7 days",144 h
same,Tmax,"Ngaoundéré Gudali zebu, plasma, 0.15 mg/kg, EMO7L, 0.15 mg/kg IV daily for 7 days, animals in order B0228, B0407, B0735, B0761",1440 min
same,Tmax,"Ngaoundéré Gudali zebu, plasma, 0.15 mg/kg, EMO7L, 0.15 mg/kg IV daily for 7 days, animals in order B0549, B0725, B0733",5 min
same,Tmax,"Ngaoundéré Gudali, plasma, 0.75 mg/kg, EMO7H, 0.75 mg/kg IV daily for 7 days, animals in order B0434, B0695, B0734",5 min
same,Terminal half-life,"plasma, derived from observed data and aggregated through the PK model, all dose groups",approximately 106 h
